Key:
[1] = system: human renal cancer cells CAKI-1; experiment: XTT cell proliferation assay, CAKI-1; type: cell-based; settings: 5 days incubation, read-out: Antiproliferative activity, Kidney CAKI-1
Description: (§1) Exemplary compounds 1-8 were tested for anti-cancer activity in vitro using human renal cancer cells (ACHN and CAK-1), human pancreatic cells (BXPC3 and SU-86-86), human prostate cancer cell (DU14), human colon carcinoma cells (HT-29 and KM-12), leukemia cells (HL60), brain cancer/tumour cells (SK-A-AS, U87-MG), and human non-small cell lung cancer cells (H460). Compounds 1-8 are the specific embodiments of Formula (I) and Formula (IV) as described above in this application.
(§2) The cells were maintained as a monolayer in a growth medium; McCoy's 5A modified medium (Sigma, St. Louis, Mo.), supplemented with 2 mM L-glutamine (Gibco, Grand Island, N.Y.), 10% fetal bovine serum (FBS) (Multicell, WISENT Inc. St-Bruno, QC), antibiotic-antimycotic (Multicell), at 37° C. in a 5% CO2-humidified incubator. Cells were transferred onto 150 mm tissue culture plates and grown until sub-confluency (70-80%) prior to their use. The in vitro antiproliferative activity of compounds was evaluated by incubating the cells with varying concentrations of exemplary compounds as shown in Table 1 for 5 days. The efficacy of these compounds in this cell proliferation assay was measured based in the ability of live cells to reduce the tetrazolium salt XTT to orange colored compounds of formazan (XTT cell proliferation kit IT, Roche Applied Science, Montreal, QC).

[2] = system: human pancreatic cells BXPC3; experiment: XTT cell proliferation assay, BXPC3; type: cell-based; settings: 5 days incubation, read-out: Antiproliferative activity, Pancreas BXPC3
Description: as §1, §2

[3] = system: human pancreatic cells SU-86-86; experiment: XTT cell proliferation assay, SU-86-86; type: cell-based; settings: 5 days incubation, read-out: Antiproliferative activity, Pancreas SU-86-86
Description: as §1, §2

[4] = system: human prostate cancer cell DU14; experiment: XTT cell proliferation assay, DU14; type: cell-based; settings: 5 days incubation, read-out: Antiproliferative activity, Pros. DU14
Description: as §1, §2

[5] = system: brain cancer/tumour cells SK-N-AS; experiment: XTT cell proliferation assay, SK-N-AS; type: cell-based, human; settings: 5 days incubation, read-out: Antiproliferative activity, Brain SK-N-AS
Description: as §1, §2

[6] = system: brain cancer/tumour cells U87-MG; experiment: XTT cell proliferation assay, U87-MG; type: cell-based, human; settings: 5 days incubation, read-out: Antiproliferative activity, Brain U87-MG
Description: as §1, §2

[7] = system: non-small cell lung cancer cells HOP-62; experiment: XTT cell proliferation assay, HOP-62; type: cell-based, human; settings: 5 days incubation, read-out: Antiproliferative activity, NSCLC HOP-62
Description: [The procedure below names another cell line; the source lists this cell line under the same test.] as §1, §2

[8] = system: human non-small cell lung cancer cells H460; experiment: XTT cell proliferation assay, H460; type: cell-based; settings: 5 days incubation, read-out: Antiproliferative activity, NSCLC H460
Description: as §1, §2

[9] = system: panel of human and mouse lymphoma cell lines; experiment: Cell growth inhibition, whole lymphoma panel (mean IC50, mean rank); type: cell-based; settings: mean over six lymphoma cell lines
Description: In this study, compounds 1-8 were screened in vitro against a panel of four mouse lymphoma cell lines and two human lymphoma cell line for cell growth inhibition activity. Following treatment, half maximal inhibitory concentrations (IC50) were determined with the objective of selecting the most efficacious compounds for evaluation of in vitro absorption, distribution, metabolism, and excretion (ADME) screening.
Cells were subcultured and 4×10^3 cells (in 50 μL) were transferred to each well in a Falcon 96-well tissue culture plate. Exemplary compounds were dissolved in pure dimethyl sulphoxide (DMSO) at a concentration of 10 mM. From this 10 mM stock solution, 12 successive serial dilutions were made in DMSO (2.5 fold dilutions), ranging from 0.52 μM to 10 mM. Using these stock dilutions, 5 μL of each were added to 500 μL of media, and 50 μL of this was added to the cells. The final concentrations being tested ranged from 0.0026 μM to 50 μM. Each concentration was tested in triplicate, and DMSO and untreated cells were also included as controls. After five days of incubation with the compounds, cell viability was determined using the XTT cell proliferation kit (Roche, Cat. No. 11 465 015 001). Following the XTT protocol, 4.5-24 hours after addition of the reagent, the plates were read in a μQuant 96-well plate spectrophotometer (Biotek Instruments Inc.) and the results analyzed to determine the IC50.
In vitro potency was assessed using eight exemplary compounds against a panel of human and mouse lymphoma cell lines (Table 4). […] To compare the efficacy of the compounds in cell growth inhibition across the entire panel of cell lines screened, the eight compounds were ranked according to efficacy against each cell line with a numerical value of one indicating most efficacious (lowest IC50 value) and eight being the least efficacious (highest IC50 value).

[10] = system: renal cell carcinoma (ACHN); experiment: Renal cell carcinoma (ACHN) xenograft model; type: in vivo, CD-1 female nude mice; settings: vs vehicle-treated control, FIG. 4
Description: (§3) The ability of compound 1 to inhibit colon tumour growth in vivo was tested as follows. CD-1 female nude mice (7 mice per treatment group, 6-7 weeks) were injected […] with human colon adenocarcinoma cells HT-29 cells (3×10^6 cells in 0.1 ml PBS). Treatment of the mice with vehicle or 50 mg/kg/d of […] was initiated 5 days post-inoculation (size of tumours=20-40 mm^3) for 7-day cycles of five days followed by a 2 day break for 5 weeks. The size of the tumours was measured over the course of the experiment using calipers, and the weight of the tumours was measured after the animals were sacrificed.
(§4) The ability of compound 1 to inhibit renal cell carcinoma growth (see FIG. 4), to inhibit pancreatic carcinoma growth (FIG. 5), to inhibit large-cell lung carcinoma cell growth (FIG. 6), and to inhibit Glioblastoma cell growth (FIG. 7) was also tested following the general procedure as discussed above.

[11] = system: non small cell lung cancer (H460); experiment: Non small cell lung cancer (H460) xenograft model; type: in vivo, CD-1 female nude mice; settings: large-cell lung carcinoma H460; vs vehicle-treated control; FIG. 6
Description: as §3, §4

Glioblastoma (U87-MG) = Glioblastoma (U87-MG) xenograft model; type: in vivo, CD-1 female nude mice; settings: vs vehicle-treated control, FIG. 7
Description: as §3, §4

## FC1(F)Oc2ccc(-c3nc4c5cccnc5c5ncccc5c4[nH]3)cc2O1 [Compound 1]
[1]
  IC50: 156 nM
[2]
  IC50: 180 nM
[3]
  IC50: 180 nM
[4]
  IC50: 170 nM
[5]
  IC50: 210 nM
[6]
  IC50: 190 nM
[7]
  IC50: 210 nM
[8]
  IC50: 160 nM
[9]
  IC50: 209 nM
[10]
  inhibition of tumour growth, as measured by tumour size: able to inhibit tumour growth
[11]
  inhibition of tumour growth, as measured by tumour size: able to inhibit tumour growth
Glioblastoma (U87-MG)
  inhibition of tumour growth, as measured by tumour size: able to inhibit tumour growth
